Patent US12692274B2, “Tetrahydroisoquinoline derivatives for the treatment of red blood disorders and inflammatory diseases” (Sanofi, priority 2020, dated 2026)
pEC50, pIC50: −log10 of the molar value. “And” between values parts separate entries of the source, which are not always exact repeats. Equal entries are not always repeated.

molecular target: HIS-Keap1 full length / Biotin-Nrf2 (16-mer) (Homo sapiens, UniProt Q14145); experiment: biochemical; conditions: not given
Sequence (Q14145 whole entry): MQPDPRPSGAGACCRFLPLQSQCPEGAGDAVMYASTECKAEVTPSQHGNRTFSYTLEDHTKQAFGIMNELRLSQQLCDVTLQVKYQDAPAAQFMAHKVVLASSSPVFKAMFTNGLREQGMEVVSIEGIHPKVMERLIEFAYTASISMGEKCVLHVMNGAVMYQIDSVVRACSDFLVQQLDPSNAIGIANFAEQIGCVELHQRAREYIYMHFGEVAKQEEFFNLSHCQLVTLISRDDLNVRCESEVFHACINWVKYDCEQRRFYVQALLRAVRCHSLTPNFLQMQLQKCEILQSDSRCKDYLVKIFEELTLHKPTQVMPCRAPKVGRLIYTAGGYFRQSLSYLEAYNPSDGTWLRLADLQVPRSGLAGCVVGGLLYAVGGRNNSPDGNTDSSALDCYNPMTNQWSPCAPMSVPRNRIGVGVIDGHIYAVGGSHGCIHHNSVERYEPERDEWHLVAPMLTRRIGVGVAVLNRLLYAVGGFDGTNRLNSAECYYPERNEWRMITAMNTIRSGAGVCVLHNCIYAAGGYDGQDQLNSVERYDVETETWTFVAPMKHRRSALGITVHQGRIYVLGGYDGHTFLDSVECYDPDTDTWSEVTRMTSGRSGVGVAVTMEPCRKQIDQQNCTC

Row | SMILES | pIC50
1 | Cc1c2n(C)c3ccc(cc13)C/C=C\CCCn1nnc3c(C)c(cnc31)[C@@H](CC(=O)O)c1ccc3c(c1)CN(CC3)C2=O [Compound 65] | 8.82 and 8.80
2 | C[C@@H](C(=O)O)[C@H]1c2ccc(nc2)OCC/C=C/Cc2ccc(cc2)C(=O)N2CCc3ccc1cc3C2 [Compound 66] | 7.50 and 7.53
3 | Cc1c2cnc3c1nnn3CCCCCCCc1ccc(cc1)C(=O)N1CCc3ccc(cc3C1)[C@H]2CC(=O)O [Compound 67] | 7.85 and 7.84
4 | Cc1c2ccc3c1nnn3CCCCCCc1ccc3c(c1)cc(n3CCCF)C(=O)N1CCc3ccc(cc3C1)[C@@H]2CC(=O)O [Compound 69] | 9.05 and 9.15
5 | Cc1cc2cnc1OCCCCCc1ccc(cc1)C(=O)N1CCc3ccc(cc3C1)[C@H]2[C@H](C)C(=O)O [Compound 70] | 6.23 and 6.12
6 | Cc1cc2ncc1[C@H]([C@@H](C)C(=O)O)c1ccc3c(c1)CN(CC3)C(=O)c1ccc(cc1)CCCCCO2 [Compound 75] | 7.66 and 7.64
7 | Cc1c2cnc3c1nnn3CCCCCCCc1ccc(cc1)C(=O)N1CCc3ccc(cc3C1)[C@@H]2CC(=O)O [Compound 77] | 9.40 and 9.10
8 | Cc1cc2ncc1[C@H](CC(=O)O)c1ccc3c(c1)CN(CC3)C(=O)c1ccc(cc1)COCCCO2 [Compound 78] | 8.12 and 8.22
9 | Cc1cc2ncc1[C@@H](CC(=O)O)c1ccc3c(c1)CN(CC3)C(=O)c1ccc(cc1)COCCCO2 [Compound 81] | 6.60 and 6.66
10 | Cc1cc2cnc1OCC/C=C/Cc1ccc(cc1)C(=O)N1CCc3ccc(cc3C1)[C@@H]2[C@@H](C)C(=O)O [Compound 83] | 5.35 and 5.41
11 | COCCn1c2cc3cc(ccc31)CCCCCCn1nnc3c(C)c(ccc31)[C@@H](CC(=O)O)c1ccc3c(c1)CN(CC3)C2=O [Compound 85] | 8.80 and 8.92
12 | COc1cc2ccc1CCCCCn1nnc3c(C)c(cnc31)[C@@H](CC(=O)O)c1ccc3c(c1)CN(CC3)C2=O [Compound 86] | 9.05 and 9.10
13 | COc1cc2ccc1CCCCCn1nnc3c(C)c(cnc31)[C@H](CC(=O)O)c1ccc3c(c1)CN(CC3)C2=O [Compound 87] | 9.10 and 9.05
14 | COc1cc2ccc1C(=O)N1CCc3ccc(cc3C1)[C@@H](CC(=O)O)c1cnc3c(nnn3CCCCC2)c1C [Compound 88] | 9.00 and 8.96

system: NQO1 activation in BEAS-2B cells; experiment: BEAS-2B cellular MTT assay of NQO1 activation, 0% HSA; format: cell-based; conditions: Homo sapiens, Serum Free W, read-out: BEAS EC50 (nM) Serum Free W
Outline: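 For the 0% HSA condition, cells were seeded into collagen plates in HSA-free medium. Culture was BEAS-2B in BEBM plus BEGM SingleQuots lacking GA-1000, held under 70% confluence, at a seeding density reaching 95-100% confluence by 48 h.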

Row | SMILES | EC50
15 | Cc1c2n(C)c3ccc(cc13)C/C=C\CCCn1nnc3c(C)c(cnc31)[C@@H](CC(=O)O)c1ccc3c(c1)CN(CC3)C2=O [Compound 65] | 3.7 nM
16 | C[C@@H](C(=O)O)[C@H]1c2ccc(nc2)OCC/C=C/Cc2ccc(cc2)C(=O)N2CCc3ccc1cc3C2 [Compound 66] | 20.6 nM
17 | Cc1c2cnc3c1nnn3CCCCCCCc1ccc(cc1)C(=O)N1CCc3ccc(cc3C1)[C@H]2CC(=O)O [Compound 67] | 23 nM
18 | Cc1c2ccc3c1nnn3CCCCCCc1ccc3c(c1)cc(n3CCCF)C(=O)N1CCc3ccc(cc3C1)[C@@H]2CC(=O)O [Compound 69] | 7.7 nM
19 | Cc1cc2cnc1OCCCCCc1ccc(cc1)C(=O)N1CCc3ccc(cc3C1)[C@H]2[C@H](C)C(=O)O [Compound 70] | 32.4 nM
20 | Cc1cc2ncc1[C@H]([C@@H](C)C(=O)O)c1ccc3c(c1)CN(CC3)C(=O)c1ccc(cc1)CCCCCO2 [Compound 75] | 9.1 nM
21 | Cc1c2cnc3c1nnn3CCCCCCCc1ccc(cc1)C(=O)N1CCc3ccc(cc3C1)[C@@H]2CC(=O)O [Compound 77] | 11.7 nM
22 | Cc1cc2ncc1[C@H](CC(=O)O)c1ccc3c(c1)CN(CC3)C(=O)c1ccc(cc1)COCCCO2 [Compound 78] | 43 nM
23 | Cc1cc2ncc1[C@@H](CC(=O)O)c1ccc3c(c1)CN(CC3)C(=O)c1ccc(cc1)COCCCO2 [Compound 81] | > 1000 nM
24 | Cc1cc2cnc1OCC/C=C/Cc1ccc(cc1)C(=O)N1CCc3ccc(cc3C1)[C@@H]2[C@@H](C)C(=O)O [Compound 83] | > 1000 nM
25 | COCCn1c2cc3cc(ccc31)CCCCCCn1nnc3c(C)c(ccc31)[C@@H](CC(=O)O)c1ccc3c(c1)CN(CC3)C2=O [Compound 85] | 39.4 nM
26 | COc1cc2ccc1CCCCCn1nnc3c(C)c(cnc31)[C@@H](CC(=O)O)c1ccc3c(c1)CN(CC3)C2=O [Compound 86] | 18 nM
27 | COc1cc2ccc1CCCCCn1nnc3c(C)c(cnc31)[C@H](CC(=O)O)c1ccc3c(c1)CN(CC3)C2=O [Compound 87] | 13 nM
28 | COc1cc2ccc1C(=O)N1CCc3ccc(cc3C1)[C@@H](CC(=O)O)c1cnc3c(nnn3CCCCC2)c1C [Compound 88] | 35.3 nM

same assay, conditions: Serum Free W, read-out: BEAS EC50 (nM) Serum Free W

Row | SMILES | EC50
29 | Cc1c2n(C)c3ccc(cc13)C/C=C\CCCn1nnc3c(C)c(cnc31)[C@@H](CC(=O)O)c1ccc3c(c1)CN(CC3)C2=O [Compound 65] | 2.7 nM
30 | C[C@@H](C(=O)O)[C@H]1c2ccc(nc2)OCC/C=C/Cc2ccc(cc2)C(=O)N2CCc3ccc1cc3C2 [Compound 66] | 27.6 nM
31 | Cc1c2cnc3c1nnn3CCCCCCCc1ccc(cc1)C(=O)N1CCc3ccc(cc3C1)[C@H]2CC(=O)O [Compound 67] | 23.5 nM
32 | Cc1c2ccc3c1nnn3CCCCCCc1ccc3c(c1)cc(n3CCCF)C(=O)N1CCc3ccc(cc3C1)[C@@H]2CC(=O)O [Compound 69] | 9 nM
33 | Cc1cc2cnc1OCCCCCc1ccc(cc1)C(=O)N1CCc3ccc(cc3C1)[C@H]2[C@H](C)C(=O)O [Compound 70] | 29.9 nM
34 | Cc1cc2ncc1[C@H]([C@@H](C)C(=O)O)c1ccc3c(c1)CN(CC3)C(=O)c1ccc(cc1)CCCCCO2 [Compound 75] | 16 nM
35 | Cc1c2cnc3c1nnn3CCCCCCCc1ccc(cc1)C(=O)N1CCc3ccc(cc3C1)[C@@H]2CC(=O)O [Compound 77] | 13.7 nM
36 | Cc1cc2ncc1[C@H](CC(=O)O)c1ccc3c(c1)CN(CC3)C(=O)c1ccc(cc1)COCCCO2 [Compound 78] | 59.3 nM
37 | Cc1cc2ncc1[C@@H](CC(=O)O)c1ccc3c(c1)CN(CC3)C(=O)c1ccc(cc1)COCCCO2 [Compound 81] | 1840 nM
38 | Cc1cc2cnc1OCC/C=C/Cc1ccc(cc1)C(=O)N1CCc3ccc(cc3C1)[C@@H]2[C@@H](C)C(=O)O [Compound 83] | 1780 nM
39 | COCCn1c2cc3cc(ccc31)CCCCCCn1nnc3c(C)c(ccc31)[C@@H](CC(=O)O)c1ccc3c(c1)CN(CC3)C2=O [Compound 85] | 61.3 nM
40 | COc1cc2ccc1CCCCCn1nnc3c(C)c(cnc31)[C@@H](CC(=O)O)c1ccc3c(c1)CN(CC3)C2=O [Compound 86] | 19.7 nM
41 | COc1cc2ccc1CCCCCn1nnc3c(C)c(cnc31)[C@H](CC(=O)O)c1ccc3c(c1)CN(CC3)C2=O [Compound 87] | 18.2 nM
42 | COc1cc2ccc1C(=O)N1CCc3ccc(cc3C1)[C@@H](CC(=O)O)c1cnc3c(nnn3CCCCC2)c1C [Compound 88] | 40.4 nM

system: NQO1 activation in BEAS-2B cells; experiment: BEAS-2B cellular MTT assay of NQO1 activation, 0.3% HSA; format: cell-based; conditions: BEAS+ W, read-out: BEAS+ W EC50
Outline: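 MTT read-out in BEAS-2B cells grown in BEBM with SingleQuots, no GA-1000, kept below 70% confluence; plates coated with collagen, with 0.3% or 0% HSA medium, seeded to 95-100% confluency at 48 h, 37 °C, 5% CO2.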

Row | SMILES | pEC50
43 | Cc1c2n(C)c3ccc(cc13)C/C=C\CCCn1nnc3c(C)c(cnc31)[C@@H](CC(=O)O)c1ccc3c(c1)CN(CC3)C2=O [Compound 65] | 7.62
44 | C[C@@H](C(=O)O)[C@H]1c2ccc(nc2)OCC/C=C/Cc2ccc(cc2)C(=O)N2CCc3ccc1cc3C2 [Compound 66] | 7.25
45 | Cc1c2cnc3c1nnn3CCCCCCCc1ccc(cc1)C(=O)N1CCc3ccc(cc3C1)[C@H]2CC(=O)O [Compound 67] | 6.78
46 | Cc1c2ccc3c1nnn3CCCCCCc1ccc3c(c1)cc(n3CCCF)C(=O)N1CCc3ccc(cc3C1)[C@@H]2CC(=O)O [Compound 69] | 6.26
47 | Cc1cc2cnc1OCCCCCc1ccc(cc1)C(=O)N1CCc3ccc(cc3C1)[C@H]2[C@H](C)C(=O)O [Compound 70] | 6.65
48 | Cc1cc2ncc1[C@H]([C@@H](C)C(=O)O)c1ccc3c(c1)CN(CC3)C(=O)c1ccc(cc1)CCCCCO2 [Compound 75] | 7.22
49 | Cc1c2cnc3c1nnn3CCCCCCCc1ccc(cc1)C(=O)N1CCc3ccc(cc3C1)[C@@H]2CC(=O)O [Compound 77] | 7.34
50 | Cc1cc2ncc1[C@H](CC(=O)O)c1ccc3c(c1)CN(CC3)C(=O)c1ccc(cc1)COCCCO2 [Compound 78] | 6.97
51 | Cc1cc2ncc1[C@@H](CC(=O)O)c1ccc3c(c1)CN(CC3)C(=O)c1ccc(cc1)COCCCO2 [Compound 81] | 5.71
52 | Cc1cc2cnc1OCC/C=C/Cc1ccc(cc1)C(=O)N1CCc3ccc(cc3C1)[C@@H]2[C@@H](C)C(=O)O [Compound 83] | 5.07
53 | COCCn1c2cc3cc(ccc31)CCCCCCn1nnc3c(C)c(ccc31)[C@@H](CC(=O)O)c1ccc3c(c1)CN(CC3)C2=O [Compound 85] | 6.61
54 | COc1cc2ccc1CCCCCn1nnc3c(C)c(cnc31)[C@@H](CC(=O)O)c1ccc3c(c1)CN(CC3)C2=O [Compound 86] | 7.59
55 | COc1cc2ccc1CCCCCn1nnc3c(C)c(cnc31)[C@H](CC(=O)O)c1ccc3c(c1)CN(CC3)C2=O [Compound 87] | 7.42
56 | COc1cc2ccc1C(=O)N1CCc3ccc(cc3C1)[C@@H](CC(=O)O)c1cnc3c(nnn3CCCCC2)c1C [Compound 88] | 7.00

same assay, conditions: Homo sapiens, BEAS+ W, read-out: BEAS+ W EC50

Row | SMILES | pEC50
57 | Cc1c2n(C)c3ccc(cc13)C/C=C\CCCn1nnc3c(C)c(cnc31)[C@@H](CC(=O)O)c1ccc3c(c1)CN(CC3)C2=O [Compound 65] | 7.74
58 | C[C@@H](C(=O)O)[C@H]1c2ccc(nc2)OCC/C=C/Cc2ccc(cc2)C(=O)N2CCc3ccc1cc3C2 [Compound 66] | 7.41
59 | Cc1c2cnc3c1nnn3CCCCCCCc1ccc(cc1)C(=O)N1CCc3ccc(cc3C1)[C@H]2CC(=O)O [Compound 67] | 6.80
60 | Cc1c2ccc3c1nnn3CCCCCCc1ccc3c(c1)cc(n3CCCF)C(=O)N1CCc3ccc(cc3C1)[C@@H]2CC(=O)O [Compound 69] | 6.31
61 | Cc1cc2cnc1OCCCCCc1ccc(cc1)C(=O)N1CCc3ccc(cc3C1)[C@H]2[C@H](C)C(=O)O [Compound 70] | 6.82
62 | Cc1cc2ncc1[C@H]([C@@H](C)C(=O)O)c1ccc3c(c1)CN(CC3)C(=O)c1ccc(cc1)CCCCCO2 [Compound 75] | 7.34
63 | Cc1c2cnc3c1nnn3CCCCCCCc1ccc(cc1)C(=O)N1CCc3ccc(cc3C1)[C@@H]2CC(=O)O [Compound 77] | 7.46
64 | Cc1cc2ncc1[C@H](CC(=O)O)c1ccc3c(c1)CN(CC3)C(=O)c1ccc(cc1)COCCCO2 [Compound 78] | 6.98
65 | Cc1cc2ncc1[C@@H](CC(=O)O)c1ccc3c(c1)CN(CC3)C(=O)c1ccc(cc1)COCCCO2 [Compound 81] | 5.66
66 | Cc1cc2cnc1OCC/C=C/Cc1ccc(cc1)C(=O)N1CCc3ccc(cc3C1)[C@@H]2[C@@H](C)C(=O)O [Compound 83] | < 5.00
67 | COCCn1c2cc3cc(ccc31)CCCCCCn1nnc3c(C)c(ccc31)[C@@H](CC(=O)O)c1ccc3c(c1)CN(CC3)C2=O [Compound 85] | 6.60
68 | COc1cc2ccc1CCCCCn1nnc3c(C)c(cnc31)[C@@H](CC(=O)O)c1ccc3c(c1)CN(CC3)C2=O [Compound 86] | 7.69
69 | COc1cc2ccc1CCCCCn1nnc3c(C)c(cnc31)[C@H](CC(=O)O)c1ccc3c(c1)CN(CC3)C2=O [Compound 87] | 7.39
70 | COc1cc2ccc1C(=O)N1CCc3ccc(cc3C1)[C@@H](CC(=O)O)c1cnc3c(nnn3CCCCC2)c1C [Compound 88] | 7.05
